Target: T1, Inhibitor of nuclear factor kappa-B kinase subunit beta (Homo sapiens, UniProt O14920)
T1 sequence (O14920 whole entry): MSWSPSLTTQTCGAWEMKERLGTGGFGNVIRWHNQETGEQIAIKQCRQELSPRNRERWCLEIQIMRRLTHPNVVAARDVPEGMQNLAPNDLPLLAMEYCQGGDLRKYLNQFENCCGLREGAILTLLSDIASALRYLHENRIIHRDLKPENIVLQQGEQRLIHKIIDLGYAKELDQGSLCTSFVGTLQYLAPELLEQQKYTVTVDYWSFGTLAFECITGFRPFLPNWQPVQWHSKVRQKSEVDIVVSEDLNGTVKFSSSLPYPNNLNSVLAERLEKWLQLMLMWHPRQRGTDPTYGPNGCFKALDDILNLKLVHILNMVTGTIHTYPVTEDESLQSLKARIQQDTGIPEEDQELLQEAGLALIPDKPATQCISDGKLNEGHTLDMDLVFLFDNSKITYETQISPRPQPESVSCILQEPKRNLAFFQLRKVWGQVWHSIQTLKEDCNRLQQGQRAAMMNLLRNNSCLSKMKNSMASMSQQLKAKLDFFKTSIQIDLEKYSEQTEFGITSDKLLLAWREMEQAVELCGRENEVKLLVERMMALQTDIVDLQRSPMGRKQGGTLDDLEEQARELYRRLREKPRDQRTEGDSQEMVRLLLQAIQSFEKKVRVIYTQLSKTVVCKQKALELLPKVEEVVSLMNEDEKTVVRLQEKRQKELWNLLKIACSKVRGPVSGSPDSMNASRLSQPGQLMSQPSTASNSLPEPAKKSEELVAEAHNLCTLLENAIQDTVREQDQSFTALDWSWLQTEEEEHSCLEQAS
Assay: Inhibition of Flag epitope-tagged IKK-beta preincubated for 5 mins by scintillation proximity assay

Compound | IC50
Cc1cc(OCCO)nc2sc(C(N)=O)c(N)c12 | 6.6 µM
Cc1cc(C)c2c(N)c(C(N)=O)sc2n1 | 2.7 µM
COc1ccnc2sc(C(N)=O)c(N)c12 | 4.7 µM
Cc1cc(-c2ccccn2)c2c(N)c(C(N)=O)sc2n1 | 6 µM
Cc1ccc2c(N)c(C(N)=O)sc2n1 | 12.7 µM
Cc1cc(N2CCCC(O)C2)nc2sc(C(N)=O)c(N)c12 (stereo unspecified) | 2.4 µM
Cc1cc(OCCN)nc2sc(C(N)=O)c(N)c12 | 2.9 µM
Cc1cc(-c2ccco2)c2c(N)c(C(N)=O)sc2n1 | 1.1 µM
COCCOc1ccnc2sc(C(N)=O)c(N)c12 | 10.8 µM
Cc1cc(NCCO)nc2sc(C(N)=O)c(N)c12 | 5.8 µM
Cc1cc(N2CCCCC2)nc2sc(C(N)=O)c(N)c12 | 2.4 µM
Cc1cc(CO)c2c(N)c(C(N)=O)sc2n1 | 13.5 µM
CCCc1cc(N2CCNC(=O)C2)nc2sc(C(N)=O)c(N)c12 | 2 µM
CCOc1ccnc2sc(C(N)=O)c(N)c12 | 2 µM
Cc1cc(-c2ccc(S(C)(=O)=O)cc2)c2c(N)c(C(N)=O)sc2n1 | 1.3 µM
CCCc1cc(N2CCC(C(N)=O)CC2)nc2sc(C(N)=O)c(N)c12 | 1.3 µM

Compound | IC50
Cc1cc(-c2cccs2)c2c(N)c(C(N)=O)sc2n1 | 2 µM
CCCOc1ccnc2sc(C(N)=O)c(N)c12 | 2.2 µM
Cc1cc(CC(C)C)c2c(N)c(C(N)=O)sc2n1 | 2.5 µM
CCCc1cc(N2CC[C@@H](O)C2)nc2sc(C(N)=O)c(N)c12 | 1.95 µM
Cc1cc(-c2ccc(Cl)cc2)c2c(N)c(C(N)=O)sc2n1 | 14 µM
CCCc1cc(C)nc2sc(C(N)=O)c(N)c12 | 1.3 µM
Cc1cc(OCCCN)nc2sc(C(N)=O)c(N)c12 | > 50 µM
Cc1cc(OCCCO)nc2sc(C(N)=O)c(N)c12 | 5.1 µM
CCCc1cc(N2CC[C@H](O)C2)nc2sc(C(N)=O)c(N)c12 | 1.45 µM
Cc1ccc(-c2cc(C)nc3sc(C(N)=O)c(N)c23)cc1 | 8.5 µM
Cc1cc(-c2ccc(O)cc2)c2c(N)c(C(N)=O)sc2n1 | > 20 µM
Cc1cc(N2CCOCC2)nc2sc(C(N)=O)c(N)c12 | 2.5 µM
CCCc1cc(N2CCC(C(=O)OC)CC2)nc2sc(C(N)=O)c(N)c12 | 7.8 µM
Cc1cc(-c2ccccc2)c2c(N)c(C(N)=O)sc2n1 | 7.4 µM
Cc1cc(-c2cc3ccccc3o2)c2c(N)c(C(N)=O)sc2n1 | 16.9 µM

The next molecules have a lower IC50 than those just listed; values first:

IC50 | Compound
0.75 µM | Cc1cc(N2CCC(O)CC2)nc2sc(C(N)=O)c(N)c12
0.072 µM | CCCc1cc(N2CCCNCC2)nc2sc(C(N)=O)c(N)c12
0.68 µM | CCCc1cc(N2CCC(OC)CC2)nc2sc(C(N)=O)c(N)c12
0.68 µM | Cc1cc(N2CCNCC2)nc2sc(C(N)=O)c(N)c12
0.52 µM | CCCc1cc(N2CCN(C)CC2)nc2sc(C(N)=O)c(N)c12
0.5 µM | CCCc1cc(N2CC[C@@H](N)C2)nc2sc(C(N)=O)c(N)c12
0.042 µM | CCCc1cc(N2CCC(O)C(C)(C)C2)nc2sc(C(N)=O)c(N)c12 (single isomer, unassigned; enantiomer 1)
0.63 µM | CCCc1cc(N2CCCCC(N)C2)nc2sc(C(N)=O)c(N)c12 (stereo unspecified)
0.59 µM | CCCc1cc(N2CC[C@H](N)C2)nc2sc(C(N)=O)c(N)c12
0.098 µM | CCCc1cc(N2CCC(NS(C)(=O)=O)CC2)nc2sc(C(N)=O)c(N)c12
0.14 µM | CCCc1cc(N2CCCNC(=O)C2)nc2sc(C(N)=O)c(N)c12
0.68 µM | CCCc1cc(N2CCC(N(C)C)CC2)nc2sc(C(N)=O)c(N)c12
0.15 µM | CCCc1cc(N2CCN(C(N)=O)CC2)nc2sc(C(N)=O)c(N)c12
0.24 µM | CCCc1cc(N2CCC(O)C(C)(C)C2)nc2sc(C(N)=O)c(N)c12 (single isomer, unassigned; enantiomer 2)
0.12 µM | CCCc1cc(N2CCC(NC)CC2)nc2sc(C(N)=O)c(N)c12
